According to US6569870B1, “Fluorinated quinolones as antimitotic and antitumor agents” (The University of North Carolina at Chapel Hill, priority 2000, dated 2003):
Read-outs that look alike come from different tables or passages of the source.

Key:
[1] = tested on: OVCAR-3, ovarian cancer cell line; assay: NCI HTCL in vitro screen, OVCAR-3; type: cell-based, human; settings: for GI50: Homo sapiens, OVCAR-3, log concentration that reduced cell growth by 50%, read-out: Cytotoxicity log GI50, OVCAR-3 (converted)
Text: (§1) This assay involves determination of a test agent's effect on growth parameters against a panel of approximately 60 human tumor cell lines, mostly derived from solid tumors.

[2] = tested on: tubulin; settings: previously reported (background); read-out: inhibition of tubulin polymerization IC50; cited from earlier work
[3] = tested on: OVCAR-3 ovarian cell line; settings: mice bearing OVCAR-3 tumor; previously reported (background); cited from earlier work
[4] = tested on: SF-268 CNS tumor cell line; assay: NCI HTCL in vitro screen, SF-268; type: cell-based; settings: Homo sapiens, log concentration that reduced cell growth by 50%, read-out: Cytotoxicity log GI50, SF-268 (converted)
Text: as §1

[5] = tested on: NCI-H226, non-small cell lung cancer cell line; assay: NCI HTCL in vitro screen, NCI-H226; type: cell-based, human; settings: for GI50: Homo sapiens, NCI-H226, log concentration that reduced cell growth by 50%, read-out: Cytotoxicity log GI50, NCI-H226 (converted)
Text: as §1

[6] = tested on: panel of approximately 60 human tumor cell lines; settings: previously reported (L. Li et al. 1994); cited from earlier work
[7] = tested on: SF-295 CNS tumor cell line; assay: NCI HTCL in vitro screen, SF-295; type: cell-based, human; settings: for GI50: Homo sapiens, SF-295, log concentration that reduced cell growth by 50%, read-out: Cytotoxicity log GI50, SF-295 (converted)
Text: as §1

[8] = tested on: T1, tubulin; assay: Inhibition of [3H]colchicine binding to tubulin (ICB); settings: for ICB (% inhib ± SD): 5 μM [3H]colchicine, 1 μM tubulin
T1 construct: ITP IC50 ± SD; other: 10 μM tubulin; ICB (% inhib ± SD); effect on tubulin polymerization; other: relative to combretastatin A-4; Ha

[9] = tested on: HCT-116, colon cancer cell line; assay: NCI HTCL in vitro screen, HCT116; type: cell-based, human; settings: for GI50: Homo sapiens, HCT-116, log concentration that reduced cell growth by 50%, read-out: Cytotoxicity log GI50, HCT116 (converted)
Text: as §1

[10] = tested on: T1, tubulin; assay: Inhibition of tubulin polymerization (ITP); type: biochemical; settings: for IC50: 10 μM tubulin, read-out: ITP IC50 ± SD
[11] = tested on: SK-Me15, melanoma; assay: NCI HTCL in vitro screen, SK-Me15; type: cell-based, human; settings: log concentration that reduced cell growth by 50%; for GI50: Homo sapiens, read-out: Cytotoxicity log GI50, SK-Me15 (converted)
Text: as §1

[12] = tested on: panel of approximately 60 human tumor cell lines; assay: NCI HTCL in vitro screen, mean over all cell lines; type: cell-based; settings: mean over all 60 cell lines; for GI50: Homo sapiens, read-out: Mean log GI50 (converted)
Description: Compounds 1-7 and 13 were tested in National Cancer Institute's HTCL screen (M. Grever et al., Seminars Oncol. 1992, 19, 622-638; A. Monks et al., J. Natl. Cancer Inst. 1991, 83, 757-766). This assay involves determination of a test agent's effect on growth parameters against a panel of approximately 60 human tumor cell lines, mostly derived from solid tumors.

[13] = tested on: RXF-393, renal cancer cell line; assay: NCI HTCL in vitro screen, RXF-393; type: cell-based, human; settings: log concentration that reduced cell growth by 50%; for GI50: Homo sapiens, RXF 393, read-out: Cytotoxicity log GI50, RXF-393 (converted)
Text: as §1

[14] = tested on: K-562, leukemia cell line; assay: NCI 60 human tumor cell line (HTCL) in vitro screen, K562; type: cell-based; settings: log concentration that reduced cell growth by 50%, read-out: Cytotoxicity log GI50, K562 (converted)
Text: as §1

[15] = tested on: T1, tubulin; settings: data from literature (Kuo 1993; Hamel 1996; Xia 1998); read-out: ITP IC50 ± SD; cited from earlier work

**Q.** Which GI50 [1] does the source give for `O=c1cc(-c2ccccc2F)[nH]c2cc3c(cc12)OCO3` [Compound 1, 2′-Fluoro-6,7-(methylenedioxy)-2-phenyl-4-quinolone] here?
**A.** 0.0813 µM

**Q.** And the IC50 [2]?
**A.** 0.85 µM

**Q.** What about the “prolonging the life span of mice bearing the tumor” value [3] of the same molecule?
**A.** 130%

**Q.** What about the GI50 [4] of the same molecule?
**A.** 2.29 µM

**Q.** And the GI50 [5]?
**A.** 0.447 µM

**Q.** And the “average log G150 value in the HTCL screen” value [6]?
**A.** −6.47

**Q.** What about the GI50 [7] of the same molecule?
**A.** 0.055 µM

**Q.** What about the “ICB (% inhib ± SD)” value ([8]; 5 μM inhibitor) of the same molecule?
**A.** 39 ± 2 % inhib

**Q.** And the GI50 [9]?
**A.** 0.0603 µM

**Q.** What about the IC50 [10] of the same molecule?
**A.** 0.68 ± 0.02 µM

**Q.** What about the GI50 [11] of the same molecule?
**A.** 0.0209 µM

**Q.** And the GI50 [12]?
**A.** 0.135 µM

**Q.** Which GI50 [13] does the source give for `CCOC(=O)COc1cc(-c2ccccc2F)nc2cc3c(cc12)OCO3` [Compound 2, 2′-Fluoro-6,7-(methylenedioxy)-2-phenyl-4-(O-ethylacetate)quinoline] here?
**A.** > 100 µM

**Q.** What about the GI50 [14] of the same molecule?
**A.** 38 µM

**Q.** What about the GI50 [4] of the same molecule?
**A.** > 100 µM

**Q.** What about the GI50 [5] of the same molecule?
**A.** > 100 µM

**Q.** And the melting point?
**A.** 119 to 120 °C

**Q.** And the GI50 [7]?
**A.** > 100 µM

**Q.** And the GI50 [9]?
**A.** 72.4 µM

**Q.** What about the IC50 [10] of the same molecule?
**A.** > 40 µM

**Q.** And the GI50 [11]?
**A.** 72.4 µM

**Q.** What about the GI50 [12] of the same molecule?
**A.** 79.4 µM

**Q.** With `O=C(O)COc1cc(-c2ccccc2F)nc2cc3c(cc12)OCO3` [Compound 3, 2′-Fluoro-6,7-(methylenedioxy)-2-phenyl-4-(O-acetic acid)quinoline] as the molecule, how does the GI50 [13] read?
**A.** > 100 µM

**Q.** What about the GI50 [1] of the same molecule?
**A.** > 100 µM

**Q.** And the GI50 [14]?
**A.** > 100 µM

**Q.** What about the GI50 [4] of the same molecule?
**A.** > 100 µM

**Q.** What about the GI50 [5] of the same molecule?
**A.** > 100 µM

**Q.** And the melting point?
**A.** > 300 °C

**Q.** And the GI50 [7]?
**A.** > 100 µM

**Q.** What about the GI50 [9] of the same molecule?
**A.** > 100 µM

**Q.** What about the IC50 [10] of the same molecule?
**A.** > 20 µM

**Q.** And the GI50 [11]?
**A.** > 100 µM

**Q.** What about the GI50 [12] of the same molecule?
**A.** > 100 µM

**Q.** For `CCOC(=O)CCCOc1cc(-c2ccccc2F)nc2cc3c(cc12)OCO3` [Compound 4, 2′-Fluoro-6,7-(methylenedioxy)-2-phenyl-4-(O-ethyl 4′-butyrate)quinoline], which GI50 [4] is on record?
**A.** > 100 µM

**Q.** What about the melting point of the same molecule?
**A.** 93 to 94 °C

**Q.** And the GI50 [9]?
**A.** > 100 µM

**Q.** And the IC50 [10]?
**A.** > 40 µM

**Q.** What about the GI50 [11] of the same molecule?
**A.** 57.5 µM

**Q.** What about the GI50 [12] of the same molecule?
**A.** 47.9 µM

**Q.** Which results are given for `O=C(O)CCCOc1cc(-c2ccccc2F)nc2cc3c(cc12)OCO3` [Compound 5, 2′-Fluoro-6,7-(methylenedioxy)-2-phenyl-4-(O-ethyl 4′-butylacetic acid)quinoline]?
**A.** melting point: > 300 °C; IC50 [10]: 12 ± 3 µM; GI50 [12]: 4.68 µM

**Q.** With `Fc1ccccc1-c1cc(=S)c2cc3c(cc2[nH]1)OCO3` [Compound 6, 2′-Fluoro-6,7-(methylenedioxy)-2-phenylquino-4-thione] as the molecule, how does the GI50 [13] read?
**A.** 29.5 µM

**Q.** What about the GI50 [1] of the same molecule?
**A.** 21.4 µM

**Q.** And the GI50 [14]?
**A.** 56.2 µM

**Q.** And the GI50 [4]?
**A.** 20 µM

**Q.** What about the GI50 [5] of the same molecule?
**A.** 16.6 µM

**Q.** What about the GI50 [7] of the same molecule?
**A.** 11.7 µM

**Q.** What about the GI50 [9] of the same molecule?
**A.** 5.5 µM

**Q.** And the GI50 [11]?
**A.** 4.07 µM

**Q.** What about the GI50 [12] of the same molecule?
**A.** 15.5 µM

**Q.** For `CC(C)(C)OC(=O)n1c(-c2ccccc2F)cc(=O)c2cc3c(cc21)OCO3` [Compound 7, N-Boc-2′-fluoro-6,7-(methylenedioxy)-2-phenyl-4-quinolone], which GI50 [13] is on record?
**A.** > 100 µM

**Q.** And the GI50 [1]?
**A.** 0.0324 µM

**Q.** What about the “cytotoxicity relative to 1, OVCAR-3” value ([1]; relative to compound 1) of the same molecule?
**A.** equipotent with 1

**Q.** What about the GI50 [14] of the same molecule?
**A.** > 100 µM

**Q.** And the GI50 [5]?
**A.** 0.0251 µM

**Q.** What about the “fold more active than 1 against NCI-H226” value ([5]; relative to compound 1) of the same molecule?
**A.** ~20 fold

**Q.** And the GI50 [7]?
**A.** 0.117 µM

**Q.** And the “cytotoxicity relative to 1, SF-295” value ([7]; relative to compound 1)?
**A.** less active than 1

**Q.** What about the GI50 [9] of the same molecule?
**A.** 0.0447 µM

**Q.** And the “cytotoxicity relative to 1, HCT-116” value ([9]; relative to compound 1)?
**A.** equipotent with 1

**Q.** What about the “effect on tubulin polymerization” value [10] of the same molecule?
**A.** moderate activity

**Q.** What about the IC50 [10] of the same molecule?
**A.** 3.2 ± 1 µM

**Q.** And the GI50 [12]?
**A.** 0.589 µM

**Q.** Which GI50 [13] does the source give for `Oc1cc(-c2ccccc2F)nc2ccc(N3CCCC3)cc12` [Compound 13] here?
**A.** < 0.01 µM

**Q.** And the “Cytotoxicity log GI50, RXF-393” value [13]?
**A.** <−8.00 M

**Q.** What about the GI50 [14] of the same molecule?
**A.** 0.0324 µM

**Q.** And the GI50 [4]?
**A.** 0.0389 µM

**Q.** What about the “ICB (% inhib ± SD)” value ([8]; 1 μM inhibitor) of the same molecule?
**A.** 76 ± 5 % inhib

**Q.** And the “ICB (% inhib ± SD)” value ([8]; 5 μM inhibitor)?
**A.** 93 ± 1 % inhib

**Q.** What about the “inhibition of [3H]colchicine binding to tubulin” value ([8]; relative to combretastatin A-4) of the same molecule?
**A.** nearly as active as the highly potent combretastatin A-4

**Q.** And the IC50 [10]?
**A.** 0.46 µM

**Q.** What about the GI50 [11] of the same molecule?
**A.** < 0.01 µM

**Q.** And the “Cytotoxicity log GI50, SK-Me15” value [11]?
**A.** <−8.00 M

**Q.** What about the “Mean log GI50” value [12] of the same molecule?
**A.** −7.62 M

**Q.** For `O=c1[nH]c(C=Cc2ccccc2)nc2ccccc12` [Compound 18, 2-styrylquinazolin-4(3H)-one], which IC50 [15] is on record?
**A.** 5 ± 0.6 µM
